What is called IC50 is the point on the concentration scale where inhibition reaches its midpoint.

SMILES strings stand for the structures. Active and inactive are the calls of the source.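 How the source made its calls: active means compound that lowers ATP signal in parent HT1080 cells at potency within fivefold of its primary screen potency; inactive means the rest.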

In the test the test system is HT1080 viability, ATPLite luminescence, overnight. The experiment in a line: viability loss in HT1080 cells – cell-based, ATPLite luminescence, cytotoxicity control for MT1-MMP activation inhibitor project, SAR follow-up (AID 652267). For orientation: Cellular ATP, detected with luciferase, serves as a proxy for viable cell number.
In the case of `O=Nc1c(-c2c(O)[nH]c3cc(Br)ccc23)[nH]c2ccccc12`, the IC50 is 36.9 µM (inactive). With `CN1/C(=C/C=C/c2n(C)c3cc([N+](=O)[O-])c([N+](=O)[O-])cc3[n+]2C)C(C)(C)c2ccccc21`, the IC50 was 40.2 µM (inactive). The result for `COc1ccc(C)cc1Nc1nc(-c2c(C)[nH]c3ccccc23)cs1` reads > 80 µM (inactive).

In the case of `CN1/C(=C\C(=O)c2cncc(Br)c2)C(C)(C)c2ccccc21`, the IC50 is > 80 µM (inactive).

For the compound `CCn1c(=O)c(=O)[nH]c2cc(C(=O)NC3CCCc4ccccc43)ccc21` (stereo unspecified), the IC50 was 15.5 µM. With `Cc1c(C(=O)OCC(=O)NCC2CCCO2)oc2ccccc12` (stereo unspecified), the IC50 was 30.3 µM (inactive).
